# Measured values: patent US5089471A, “Peptidyl beta-aminoacyl aminodiol carbamates as anti-hypertensive agents” (G. D. Searle & Co., priority 1987, dated 1992)
# Square brackets hold non-standard residues; d marks the D form. Peptide text beside a SMILES is read from it. * marks the point of attachment. Sta = CC(C)C[C@H](N)[C@@H](O)CC(=O)O; Isovaleryl = CC(C)CC(=O)*
# Experiments:
# human renin = molecular target: T1, human renin (Homo sapiens, UniProt P00797); assay: in vitro human renin inhibition test (angiotensin I determined by radioimmunoassay); format: biochemical; settings: for relative activity of epimers as human renin inhibitor (in words): epimer of Example 9 versus epimer of Example 10
# T1 construct: purchased National Institute for Biological Standards, London
# T1 sequence (P00797 67-406): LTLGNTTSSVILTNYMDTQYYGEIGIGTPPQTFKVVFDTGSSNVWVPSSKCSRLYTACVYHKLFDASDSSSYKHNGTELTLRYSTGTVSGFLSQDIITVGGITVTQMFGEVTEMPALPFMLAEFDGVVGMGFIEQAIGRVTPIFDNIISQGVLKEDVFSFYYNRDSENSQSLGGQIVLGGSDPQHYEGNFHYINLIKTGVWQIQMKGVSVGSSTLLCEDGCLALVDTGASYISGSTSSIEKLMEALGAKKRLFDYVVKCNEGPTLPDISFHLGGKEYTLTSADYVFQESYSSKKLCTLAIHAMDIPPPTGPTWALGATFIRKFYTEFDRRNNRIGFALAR
# Description: Compounds of Formula I were evaluated as inhibitors of human renin in an in vitro assay, as follows: This human renin inhibition test has been previously described in detail [Papaioannou, et al., Clinical and Experimental Hypertension, A7(9), 1243-1257 (1985)]. Human renin was obtained from the National Institute for Biological Standards, London. In a total volume of 0.25 mL 100 mM Tris-acetate buffer at pH 7.4, 25×10^-6 Goldblatt units of renin, 0.05 mL of plasma from human volunteers taking oral contraceptives, 6.0 mM sodium EDTA, 2.4 mM phenylmethyl sulfonyl fluoride, 1.5 mM 8-hydroxyquinoline, 0.4 mg/mL BSA, and 0.024 mg/mL neomycin sulfate were incubated for two hours at 37° C. in the presence or absence of renin inhibitors. The produced angiotensin I was determined by radioimmunoassay (New England Nuclear kit). Compounds of Formula I to be assayed were solubilized in either ethyl alcohol or DMSO and diluted with 100 mM Tris-acetate buffer at pH 7.4 to the appropriate concentration. The final concentration of organic solvent in the reaction mixture was less than 1%. Control incubations at 37° C. were used to correct for effects of organic solvent on renin activity.
# hog renin = settings: after the injection of hog renin into nephrectomized rats; Gross et al, Science, 175, 656 (1971); cited from earlier work
# pepsin = settings: Umezawa et al, J. Antibiot. 23:259-262 (1970); cited from earlier work
# cathepsin D = settings: Umezawa et al, J. Antibiot. 23:259-262 (1970); cited from earlier work
# renin = settings: Umezawa et al, J. Antibiot. 23:259-262 (1970); cited from earlier work
# acid proteases = settings: cited from earlier work
# [1] = in vitro, pH 7.4, 37° C., two hours, human plasma
compound,measurement,setting,value
"CC(C)C[C@H](O)[C@H](O)[C@H](CC1CCCCC1)NC(=O)C(C)CNC(=O)[C@H](Cc1ccccc1)OC(=O)N1CCOCC1 (stereo partly drawn) [Example 8, O-(N-morpholinocarbonyl)-3-L-phenyllactyl-D,L-α-methyl-β-alaninamide of (2S, 3R, 4S)-2-amino-1-cyclohexyl-3,4-dihydroxy-6-methylheptane]",inhibiting renin (in words),human renin; in vitro,capable of inhibiting renin in vitro
same,IC50,human renin; [1],280 nM
"CC(C)C[C@H](O)[C@H](O)[C@H](CC1CCCCC1)NC(=O)[C@H](C)CNC(=O)[C@H](Cc1ccccc1)OC(=O)N1CCOCC1 [Example 9, O-(N-morpholinocarbonyl)-3-L-phenyllactyl-α-(R)-methyl-β-alaninamide of (2 S, 3R, 4S)-2-amino-1-cyclohexyl-3,4-dihydroxy-6-methylheptane]",relative activity of epimers as human renin inhibitor (in words),human renin,much more active as a human renin inhibitor than the other epimer of Example 10
same,IC50,human renin; [1],210 nM
"CC(C)C[C@H](O)[C@H](O)[C@H](CC1CCCCC1)NC(=O)[C@@H](C)CNC(=O)[C@H](Cc1ccccc1)OC(=O)N1CCOCC1 [Example 10, O-(N-morpholinocarbonyl)-3-L-phenyllactyl-α-(S)-methyl-β-alaninamide of (2S, 3R, 4S)-2-amino-1-cyclohexyl-3,4-dihydroxy-6-methylheptane]",inhibition at 1 µM,"human renin; @ 10^-6 M, in vitro, pH 7.4, 37° C., two hours, human plasma",8%
same,relative activity of epimers as human renin inhibitor (in words),human renin,less active epimer
CC(C)CC(=O)N[C@H](C(=O)N[C@H](C(=O)N[C@@H](CC(C)C)[C@@H](O)CC(=O)N[C@@H](C)C(=O)N[C@@H](CC(C)C)[C@@H](O)CC(=O)O)C(C)C)C(C)C [pepstatin] (Isovaleryl-VV[Sta]A[Sta]-OH),reduction of blood pressure,hog renin,reduce blood pressure in vivo
same,inhibition of pepsin (in words),pepsin,inhibitor of aspartyl proteases such as pepsin
same,inhibition of cathepsin D (in words),cathepsin D,"inhibitor of aspartyl proteases such as pepsin, cathepsin D"
same,inhibition of renin (in words),renin,"inhibitor of aspartyl proteases such as pepsin, cathepsin D and renin"
same,inhibition of acid proteases in addition to renin (in words),acid proteases,inhibiting acid proteases in addition to renin
